# Laboratory results published in patent US9669044B2, “Aminoglycoside and azole compositions and methods” (Utah State University, priority 2010, dated 2017).
# Read-outs that look alike come from different tables or passages of the source.
# Legend:
# [1] = tested on: Fusarium graminearum; test: microbe, parasite or virus in culture; format: cell-based; conditions: for MIC: Fusarium graminearum, read-out: MIC (growth inhibition)
# [2] = tested on: Rhodotorula pilimanae; test: Disk diffusion growth inhibitory assay; format: cell-based; parameters: Relative Activity (zone of inhibition diameter): key: +++, considerable activity; ++, moderate activity; −−−, no activity
# [3] = tested on: Rhodotorula pilimanae; test: microbe, parasite or virus in culture; format: cell-based; conditions: Rhodotorula mucilaginosa
# [4] = tested on: Fusarium graminearum; format: cell-based; conditions: disk diffusion, PDA-CA medium
# [5] = tested on: Fusarium oxysporum; test: Disk diffusion growth inhibitory assay; format: cell-based; parameters: key: +++, considerable activity; ++, moderate activity; −−−, no activity; conditions: PDA-CA medium
# [6] = tested on: Fusarium culmorum; format: cell-based; parameters: key to the marks not given beside the values; also: key: +++, considerable activity; ++, moderate activity; −−−, no activity
# [7] = tested on: Microdochium nivale; format: cell-based; parameters: key to the marks not given beside the values; also: key: +++, considerable activity; ++, moderate activity; −−−, no activity
# [8] = tested on: Mucor haemalis; test: Disk diffusion growth inhibitory assay; format: cell-based; parameters: key: +++, considerable activity; ++, moderate activity; −−−, no activity; conditions: PDA-CA medium
# [9] = tested on: Ulocladium spp.; test: Disk diffusion growth inhibitory assay; format: cell-based; parameters: key: +++, considerable activity; ++, moderate activity; −−−, no activity; conditions: PDA-CA medium
# [10] = tested on: Penicillium spp; format: cell-based; parameters: key to the marks not given beside the values; also: key: +++, considerable activity; ++, moderate activity; −−−, no activity
# [11] = tested on: Rhizopus stolonifer; test: Disk diffusion growth inhibitory assay; format: cell-based; parameters: key: +++, considerable activity; ++, moderate activity; −−−, no activity; conditions: PDA-CA medium
# [12] = tested on: Cladosporium cladosporioides; format: cell-based; parameters: key to the marks not given beside the values; also: key: +++, considerable activity; ++, moderate activity; −−−, no activity
# [13] = tested on: Candida albicans ATCC 10231; test: Disk diffusion growth inhibitory assay; format: cell-based; parameters: key: +++, considerable activity; ++, moderate activity; −−−, no activity; conditions: PDA-CA medium
# [14] = tested on: Saccharomyces cerevisiae W303C; format: cell-based; parameters: key to the marks not given beside the values; also: key: +++, considerable activity; ++, moderate activity; −−−, no activity
# [15] = tested on: Escherichia coli B; test: Bacterial MIC test in trypticase soy broth; format: cell-based; conditions: 35° C., 12-18 hrs
# Protocol: (§1) For purposes of the experiments discussed in this paragraph, the MIC is defined as the lowest concentration of compound needed to inhibit the growth of bacteria. A solution of a selected bacterium was inoculated into trypticase soy broth (Difco, B D, Franklin Lakes, N.J., USA), at 35° C. and incubated for 1-2 hours. […] The 96-well plate was incubated at 35° C. for 12-18 hrs. The MIC tests were repeated at least three times.
# [16] = tested on: Micrococcus luteus; test: Bacterial MIC test in trypticase soy broth; format: cell-based; conditions: 35° C., 12-18 hrs
# Protocol: as §1
# [17] = tested on: Azole-resistant Candida albicans ATCC 10231; test: Disk diffusion test for synergistic inhibition by itraconazole and K20; format: cell-based
# [18] = tested on: Azole-resistant Candida albicans ATCC 10231; test: Microdilution checkerboard assay of K20 and azoles; format: cell-based; conditions: for MIC of azole in combination with K20: combined with K20; for Effect (drug interaction class by FICI) / FICI (Fractional Inhibitory Concentration Index): the row's azole combined with K20; for MIC: Candida albicans, ATCC10231, read-out: MIC, azole alone
# [19] = tested on: Azole-resistant Candida albicans ATCC 10231; test: Time-kill curves of itraconazole and K20; conditions: K20 alone, 32 μg mL^−1
# Protocol: Method: Strain Candida albicans ATCC 10231 was prepared at an inoculum size of 10^5 c.f.u. mL^−1 in PDB-CA medium. The drug concentrations used were 32 μg mL^−1 for K20 and 0.18 μg mL^−1 for itraconazole. At designated times (0, 3, 6, 9, 24 and 48 h after incubation), 100 μL aliquots were removed from each solution and serially diluted 10-fold in sterile water. One hundred μL volumes of each dilution were streaked on agar surfaces of potato dextrose agar plates to allow growth. Colony counts were determined after incubation for 48 h. The experiment was performed triplicate.
# [20] = tested on: Chinese Hamster Ovary (CHO) cells (line 1-15); format: cell-based; conditions: 3.7 μg mL^−1
# Protocol: Method: […] The cells were transferred into sterile 50 mL Falcon conical plastic tubes containing 10 mL of the medium at a cell density of 2.5×10^5 cells mL^-1. […] The suspensions were incubated with continuous agitation for 48 h at 37° C. with 5% CO2 in a humidified incubator. After 24 and 48 h, lmL portions of the cell culture suspensions (drug treated or untreated) were transferred to Beckman Coulter Vi-Cell XR cups and mixed with Trypan Blue to determine cell counts and viability in a Beckman Coulter Vi-Cell counter.
# [21] = tested on: Escherichia coli TG1; format: cell-based; parameters: key to the marks not given beside the values; also: key: +++, considerable activity; ++, moderate activity; −−−, no activity
# [22] = tested on: Staphylococcus aureus ATCC 6538; test: Disk diffusion growth inhibitory assay; format: cell-based; parameters: key to the marks not given beside the values; conditions: PDA-CA medium
# [23] = tested on: Micrococcus luteus; test: Disk diffusion growth inhibitory assay; format: cell-based; parameters: key to the marks not given beside the values; conditions: PDA-CA medium
smiles,measurement,setting,value
"CCCCCCCC(=O)OC[C@H]1OC(O[C@@H]2C(N)CC(N)C(O[C@H]3OC(CN)[C@@H](O)[C@H](O)C3O)[C@@H]2O)[C@H](O)[C@H](N)C1O (stereo partly drawn) [K05, 6″-O-octanoylkanamycin A]",MIC,[1],> 62.5 µg/mL
same,concentration giving no pigmentation,[1]; against Fusarium graminearum,31.25 µg/mL
"CCCCCCCCNC[C@H]1OC(O[C@@H]2C(N)CC(N)C(O[C@H]3OC(CN)[C@@H](O)[C@H](O)C3O)[C@@H]2O)[C@H](O)[C@H](N)C1O (stereo partly drawn) [K17, 6″-deoxy-6″-octylaminokanamycin A]",activity in inhibition zone assay,"[2]; against Rhodotorula pilimanae, result in words",Not determined. Only inhibition zone assay and not active against Rhodotorula pilimanae
"CCCCCCCCSC[C@H]1OC(O[C@@H]2C(N)CC(N)C(O[C@H]3OC(CN)[C@@H](O)[C@H](O)C3O)[C@@H]2O)[C@H](O)[C@H](N)C1O (stereo partly drawn) [K18, 6″-deoxy-6″octylthiokanamycin A]",MIC,[1],15.6 µg/mL
same,MIC,[3],62.5 µg/mL
"Cc1ccc(S(=O)(=O)OC[C@H]2OC(O[C@@H]3C(N)CC(N)C(O[C@H]4OC(CN)[C@@H](O)[C@H](O)C4O)[C@@H]3O)[C@H](O)[C@H](N)C2O)cc1 (stereo partly drawn) [K19, 6″-O-toluenesulfonylkanamycin A]",inhibition of Rhodotorula,"[2]; result in words, assay type (MIC or disk diffusion) not stated",relatively little but nevertheless some inhibition of Rhodotorula
"CCCCCCCCS(=O)(=O)OCC1OC(OC2C(N)CC(N)C(OC3OC(CN)C(O)C(O)C3O)C2O)C(O)C(N)C1O (stereo not drawn) [K20, 6″-O-octanesulfonylkanamycin A]",Relative Activity (zone of inhibition diameter),[4],^b+++
same,Relative Activity (zone of inhibition diameter),[5],++
same,Relative Activity (zone of inhibition diameter),[6],+++
same,Relative Activity (zone of inhibition diameter),[7],+++
same,Relative Activity (zone of inhibition diameter),[8],+++
same,Relative Activity (zone of inhibition diameter),[9],+++
same,Relative Activity (zone of inhibition diameter),[10],++
same,Relative Activity (zone of inhibition diameter),[11],+++
same,Relative Activity (zone of inhibition diameter),[12],++
same,Relative Activity (zone of inhibition diameter),[2],+++
same,Relative Activity (zone of inhibition diameter),[13],++
same,Relative Activity (zone of inhibition diameter),[14],++
same,MIC,[15],250 µg/mL
same,MIC,[16],62.5 µg/mL
same,Zone of growth inhibition / fungicidal activity,"[17]; K20 alone, 32 μg mL^−1 per disc",no fungicidal activities
same,"MIC, K20 alone","[18]; checkerboard, PDB-CA",128 µg/mL
same,MIC of K20 in combination,[18]; in combination with chlotrimazole,8 µg/mL
same,MIC of K20 in combination,[18]; in combination with fluconazole,16 µg/mL
same,MIC of K20 in combination,[18]; in combination with itraconazole,32 µg/mL
same,MIC of K20 in combination,[18]; in combination with ketoconazole,32 µg/mL
same,MIC of K20 in combination,[18]; in combination with metconazole,8 µg/mL
same,MIC of K20 in combination,[18]; in combination with posaconazole,16 µg/mL
same,MIC of K20 in combination,[18]; in combination with pyraclostrobin,16 µg/mL
same,MIC of K20 in combination,[18]; in combination with tioconazole,16 µg/mL
same,MIC of K20 in combination,[18]; in combination with voriconazole,4 µg/mL
same,time-kill effect,[19],the same as the control
"CCCCCCS(=O)(=O)OC[C@H]1OC(O[C@@H]2C(N)CC(N)C(O[C@H]3OC(CN)[C@@H](O)[C@H](O)C3O)[C@@H]2O)[C@H](O)[C@H](N)C1O (stereo partly drawn) [K22, 6″-O-hexanesulfonylkanamycin A]",MIC,[1],31.3 µg/mL
Clc1ccccc1C(c1ccccc1)(c1ccccc1)n1ccnc1 [chlotrimazole],"MIC, azole alone","[18]; checkerboard, PDB-CA",1.25 µg/mL
same,MIC of azole in combination with K20,[18]; checkerboard,0.15 µg/mL
same,Effect (drug interaction class by FICI),[18],synergy
same,FICI (Fractional Inhibitory Concentration Index),[18],0.18
OC(Cn1cncn1)(Cn1cncn1)c1ccc(F)cc1F [fluconazole],MIC,"[18]; checkerboard, PDB-CA",> 24 µg/mL
same,MIC of azole in combination with K20,[18]; checkerboard,3 µg/mL
same,Effect (drug interaction class by FICI),[18],synergy
same,FICI (Fractional Inhibitory Concentration Index),[18],0.18
CCC(C)n1ncn(-c2ccc(N3CCN(c4ccc(OCC5COC(Cn6cncn6)(c6ccc(Cl)cc6Cl)O5)cc4)CC3)cc2)c1=O (stereo not drawn) [itraconazole],Zone of growth inhibition / fungicidal activity,"[17]; ITC alone, 0.5 μg mL^−1 per disc",no fungicidal activities
same,MIC,"[18]; checkerboard, PDB-CA",> 3 µg/mL
same,MIC of azole in combination with K20,[18]; checkerboard,0.18 µg/mL
same,Effect (drug interaction class by FICI),[18],synergy
same,FICI (Fractional Inhibitory Concentration Index),[18],0.31
same,decrease in cell viability,[20],63%
NCC1O[C@H](OC2C(N)CC(N)[C@@H](OC3O[C@H](CO)C(O)[C@@H](N)[C@H]3O)[C@H]2O)C(O)[C@@H](O)[C@@H]1O (stereo partly drawn) [kanamycin A],Relative Activity (zone of inhibition diameter),[21],+++
same,Relative Activity (zone of inhibition diameter),[22],+++
same,Relative Activity (zone of inhibition diameter),[23],+++
same,MIC,[15]; read-out: MIC,1.95 µg/mL
same,MIC,[16]; read-out: MIC,0.98 µg/mL
NC[C@H]1O[C@H](O[C@H]2[C@H](O)[C@@H](O[C@H]3O[C@H](CO)[C@@H](O)[C@H](N)[C@H]3O)[C@H](N)C[C@@H]2N)[C@H](N)[C@@H](O)[C@@H]1O [kanamycin B],MIC,[15],1.95 µg/mL
same,MIC,[16],0.98 µg/mL
CC(=O)N1CCN(c2ccc(OCC3COC(Cn4ccnc4)(c4ccc(Cl)cc4Cl)O3)cc2)CC1 (stereo not drawn) [ketoconazole],MIC,"[18]; checkerboard, PDB-CA",24 µg/mL
same,MIC of azole in combination with K20,[18]; checkerboard,1.5 µg/mL
same,Effect (drug interaction class by FICI),[18],synergy
same,FICI (Fractional Inhibitory Concentration Index),[18],0.31
CC1(C)CCC(Cc2ccc(Cl)cc2)C1(O)Cn1cncn1 (stereo not drawn) [metconazole],MIC,"[18]; checkerboard, PDB-CA",2.5 µg/mL
same,MIC of azole in combination with K20,[18]; checkerboard,0.15 µg/mL
same,Effect (drug interaction class by FICI),[18],synergy
same,FICI (Fractional Inhibitory Concentration Index),[18],0.12
CC[C@@H]([C@H](C)O)n1ncn(-c2ccc(N3CCN(c4ccc(OC[C@@H]5CO[C@@](Cn6cncn6)(c6ccc(F)cc6F)C5)cc4)CC3)cc2)c1=O [posaconazole],MIC,"[18]; checkerboard, PDB-CA",> 0.75 µg/mL
same,MIC of azole in combination with K20,[18]; checkerboard,0.09 µg/mL
same,Effect (drug interaction class by FICI),[18],synergy
same,FICI (Fractional Inhibitory Concentration Index),[18],0.24
COC(=O)N(OC)c1ccccc1COc1ccn(-c2ccc(Cl)cc2)n1 [pyraclostrobin],MIC,"[18]; checkerboard, PDB-CA",6 µg/mL
same,MIC of azole in combination with K20,[18]; checkerboard,0.75 µg/mL
same,Effect (drug interaction class by FICI),[18],synergy
same,FICI (Fractional Inhibitory Concentration Index),[18],0.25
Clc1ccc(C(Cn2ccnc2)OCc2ccsc2Cl)c(Cl)c1 (stereo not drawn) [tioconazole],MIC,"[18]; checkerboard, PDB-CA",0.25 µg/mL
same,MIC of azole in combination with K20,[18]; checkerboard,0.03 µg/mL
same,Effect (drug interaction class by FICI),[18],synergy
same,FICI (Fractional Inhibitory Concentration Index),[18],0.25
C[C@@H](c1ncncc1F)[C@](O)(Cn1cncn1)c1ccc(F)cc1F [voriconazole],MIC,"[18]; checkerboard, PDB-CA",> 1 µg/mL
same,MIC of azole in combination with K20,[18]; checkerboard,0.125 µg/mL
same,Effect (drug interaction class by FICI),[18],synergy
same,FICI (Fractional Inhibitory Concentration Index),[18],0.15
